Test results as given in EP0369810A2, “PAF antagonists as anti-hyperendothelinemia agents” (Takeda Chemical Industries, Ltd., priority 1988, dated 1990).
Like-named read-outs stand apart in the source and are kept apart here. Marks after values point to notes of the source that are not given here.

Experiments:
endothelin [1] = assay: Protective effects against endothelin-induced death in mice; assay type: in vivo; conditions: mouse, survival 1 h after endothelin
Procedure: (§1) Male SD-Jcl rats (5-6 weeks old) and male Jcl-ICR mice (5-6 weeks 01 d) were used without anesthetization.
(§2) Physiological saline or drug-dissolved physiological saline was given via the tail vein to a rat in a volume of 1 ml/kg and to a mouse in a volume of 5 ml/kg. Five minutes later, the same volume of endothelin (Peptide Institute; 5 nmol/kg)-dissolved physiological saline was intravenously given.
(§3) In the case of oral administration of a drug, the drug was given in 10 ml/kg of 5% gum arabic suspension one hour before the administration of endothelin.
(§4) One hour after the administration of endothelin, the survival rates were measured, and the effect of the drug was evaluated.

endothelin [2] = assay: Protective effects against endothelin-induced death in rats; assay type: in vivo; conditions: rat, survival 1 h after endothelin
Procedure: as §1, §2, §3, §4

endothelin [3] = assay: Protective effects against arrhythmia-inducing activity of endothelin in rats (electrocardiogram); assay type: in vivo, rat; conditions: anesthetized rats; for PVB counts (15 min.): premature ventricular beats; for VF incidence: ventricular fibrillation; for VT incidence: ventricular tachycardia
Procedure: Male SD-Jcl rats (9 weeks old) were anesthetized with pentobarbital (50 mg/kg, intraperitoneal injection), and electrocardiogram (Lead II) was monitored on a polygraph. A drug was dissolved in physiological saline and given via the tail vein in a volume of 1 ml/kg. Five minutes later, endothelin (5 nmol/kg) was intravenously administered. In the case of oral administration, a drug was given in 10 ml/kg of 5% gum arabic suspension one hour before the administration of endothelin.

Acute toxicities = conditions: rat, in vivo
Procedure: PAF antagonists were administered to male Wistar rats (4-6 weeks old) to observe the acute toxicities.

[4] = system: cultured rat vascular smooth muscle cells; assay: Inhibition of endothelin-induced elevation of cytosolic calcium concentration (fura-2 fluorescence); assay type: cell-based; conditions: endothelin 4 x 10-^9 M, read-out: Inhibitory activity (%); for inhibition at 0.4 µM: compound 4 x 10^-7 M; for inhibition at 0.04 µM: compound 4 x 10^-8 M; for inhibition at 4 µM: compound 4 x 10^-6 M
Procedure: A glass cover slide coated with 4 µM fura-2-loaded cultured rat vascular smooth muscle cells was inserted into a quartz cuvette which contained 2.5 ml HEPES buffer (pH 7.2). On this occasion, the glass cover slide was fixed on a diagonal of 45° to the direction of excitation light. The fluoroscence was measured in a Hitachi F-4000 spectrofluorimeter. Wavelengths were set at 340 nm and 380 nm for excitation and 505 nm for emission. Fmax and Fmin were estimated after addition of ionomycin (2 µM; Calbiochem) as calcium ionophore and EGTA (8 mM) as calcium ion-chelator, respectively. The cytosolic calcium ion concentration [Ca^++]i values were calculated by Tsien et al. formula: [Ca^++]-i = kd*(F-Fmin)/(Fmax-F) with modifications assuming kd = 224 nM, i.e. by the formulas: • [Ca^++]i = kd*(R-Rmin)*Sf2/(Rmax-R)*Sb2 • R = [D(W1)-AutoF1]/[D(W2)-AutoF2] • D(Wi) : Determined value at wavelength for excitation W1 • D(W2) : Determined value at wavelength for excitation W2 • AutoF1 : self-fluoroscence at W1 • AutoF2 self-fluoroscence at W2 • Rmin : R in zero Ca^++ = Fmin (W1)/Fmin (W2) • Rmax : R in Ca^++-saturated concentration = Fmax (W1)/Fmax (W2) • Sf2 : strength of fluoroscence by free Ca^++ at W2 • Sb2 : strength of fluoroscence by bound Ca^++ at W2 The experiments were carried out as follows: PAF antagonists, the compounds [II], [IV] and [Vllla], were added to the solution in the cuvette. Incubation was conducted for 5 minutes and then endothelin (4 x 10-^9 M) was added to observe changes of strength of fluoroscence.

M-SHRsp = assay: Protective action on ischemic cerebral damage in M-SHRsp (bilateral carotid occlusion and reperfusion); assay type: in vivo, rat; conditions: 24 hour reperfusion
Procedure: Male malignant spontaneously hypertensive rats (M-SHRsp), 8 weeks old, were used. The carotid artery was occluded bilaterally for 1 hour under conscious condition followed by reperfusion for 24 hours. The drug was orally given 1 hour prior to the occlusion of the artery. The survival rate of rats was estimated during the 24 hour reperfusion.

glomerulonephritic rats = assay: Antiproteinuric action in glomerulonephritic rats; assay type: in vivo, rat; conditions: urinary excretion; 100 mg/kg p.o. once a day for 4 weeks
Procedure: Glomerulonephritis in rats was prepared according to the method by Nagamatsu et al. (Folia Pharmacol. Jpn. 78, 491, 1981). The mixture of 3 mg rabbit serum albumin (RSA) and the same amount of complete Freund's adjuvant was prepared. One ml/rat (3 mg/rat) of the mixture was first injected subcutaneously to 5 weeks old Spraque Dawley (Jcl) rats. 2 weeks later, RSA (1 mg/rat) was injected intravenously 3 times a week for 8 weeks. At the point of RSA injection for the first 4 weeks, urine was collected from the rat for 24 hours to measure urinary excretion of albumin and total protein. According to the value of albumin and total protein obtained, the rats were separated into 2 groups of the control and the treatment group. Then, the drug or vehicle was orally given once a day for 4 weeks and the 24 hour-urine at the 4 week of the dosage was collected for measurement of urinary albumin and total protein.

[5] = system: Male Spraque Dawley (Jcl) rats; assay: Effect on acute renal failure in rats (bilateral renal artery occlusion and reperfusion); assay type: in vivo, rat; conditions: oral dose of 30 mg/kg 1 hour prior to occlusion; 45 min occlusion, 20 hours reperfusion
Procedure: Male Spraque Dawley (Jcl) rats, 5 weeks old, were anesthetized with sodium pentobarbital (50 mg/kg, i.p.) and the renal artery was occluded bilaterally for 45 minutes followed by reperfusion for 20 hours. The blood was collected from the abdominal aorta under anesthesia for measurement of blood urea nitrogen (BUN).

[6] = 3 mg/kg i.v. 5 min before endothelin 5 nmol/kg i.v.
[7] = 1 mg/kg i.v. 5 min before endothelin 5 nmol/kg i.v.
[8] = sustained increase of cytosolic calcium
[9] = transient increase of cytosolic calcium
[10] = 100 mg/kg p.o. 1 h before endothelin 5 nmol/kg i.v.
[11] = 30 mg/kg p.o. 1 h before endothelin 5 nmol/kg i.v.
[12] = 30 mg/kg i.v. 5 min before endothelin 5 nmol/kg i.v.

In the case of CCCCCCCCCCCCCCCCCCNC(=O)OCC(COC(=O)N(Cc1cccc[n+]1CC)C(C)=O)OC.[Cl-] (stereo not drawn) [Compd [II], 2-[N-acetyl-N-(2-methoxy-3-octadecylcarbamoyloxypropoxycarbonyl)-aminomethyl]-1-ethylpyridinium chloride], the “Protective effect to death Survival Rate (%)” value (shortened to “Protective effect … (%)”) (endothelin [1]; [6]) is reported as 100** %, the “Protective effect to death Survival Total” value (endothelin [1]; [6]) is reported as 10/10 and the “Protective effect … (%)” value (endothelin [2]; [6]) is reported as 94** %. For the same compound, the “Protective effect to death Survival Total” value (endothelin [2]; [6]) was 15/16, the “PVB counts (15 min.)” value (endothelin [3]; [7]) was 9±8 and the VF incidence (endothelin [3]; [7]) was 2/9**. For the same compound, the VT incidence (endothelin [3]; [7]) was 3/9**, the LD50 (Acute toxicities; iv, male Wistar rats) was > 20 mg/kg and the inhibition at 0.4 µM [4, 8] was 100%. The inhibition at 0.04 µM [4, 8] was 100%, the inhibition at 4 µM [4, 9] was 100% and the inhibition at 0.4 µM [4, 9] was 100%.
For COc1cc2c(cc1OC)CCCC(C(=O)N1CCN(C(=O)c3cc(OC)c(OC)c(OC)c3)CC1)=C2 [Compd [IV], 1-(2,3-dimethoxy-6,7-dihydro-5H-benzocycloheptenyl-8-carbonyl)-4-(3,4,5-trimethoxybenzoyl)piperazine], the “Survival rate (24 hr)” value (M-SHRsp; 1 mg/kg p.o. 1 hour prior to occlusion) was 2/7, the “Survival rate (24 hr)” value (M-SHRsp; 10 mg/kg p.o. 1 hour prior to occlusion) was 6/7* and the “Survival rate (24 hr)” value (M-SHRsp; 10 mg/kg p.o. 1 hour prior to occlusion, listed as compound [IV]) was 6 out of 7. For the same compound, the “Survival rate (24 hr)” value (M-SHRsp; 100 mg/kg p.o. 1 hour prior to occlusion) was 4/4*, the “Survival rate (24 hr)” value (M-SHRsp; 100 mg/kg p.o. 1 hour prior to occlusion, listed as compound [IV]) was “all out of 4” and the “Protective effect … (%)” value (endothelin [1]; [10]) was 100** %. The “Protective effect to death Survival Total” value (endothelin [1]; [10]) was 15/15, the albumin (glomerulonephritic rats) was 17 ± 11 mg/100 g/24 hr and the total protein (glomerulonephritic rats) was 43 ± 16 mg/100 g/24 hr. For the same compound, the LD50 (Acute toxicities; po) was > 1000 mg/kg, the inhibition at 0.4 µM [4, 8] was 52.6% and the inhibition at 0.4 µM [4, 9] was 76.2%.
For Cc1nnc2n1-c1sc(CCC(=O)N3CCOCC3)cc1C(c1ccccc1Cl)=NC2 [Compd [IX], reference compound], the “Protective effect … (%)” value (endothelin [1]; [11]) was 53** %, the “Protective effect to death Survival Total” value (endothelin [1]; [11]) was 8/15 and the “Protective effect … (%)” value (endothelin [2]; [11]) was 40** %. For the same compound, the “Protective effect to death Survival Total” value (endothelin [2]; [11]) was 6/15, the “PVB counts (15 min.)” value (endothelin [3]; [11]) was 12±5 and the VF incidence (endothelin [3]; [11]) was 4/6**. The VT incidence (endothelin [3]; [11]) was 4/6**.
For CCC[n+]1cc(Br)cc(C(=O)N(CCC(=O)NCCOC(=O)N2CCc3ccccc3C2)c2ccccc2)c1 [Compd [VIIIb]], the “Blood urea nitrogen (BUN)” value [5] was 88 ± 2 mg/dL.
With CCCCCCCCCCCCCCCCCCNC(=O)OCC(COP(=O)([O-])OCC[n+]1ccsc1)OC (stereo not drawn) [Compd [VI], 3-(N-n-octadenylcarbamoyloxy)-2-methoxypropyl 2-thiazolioethyl phosphate] the “Protective effect … (%)” value (endothelin [1]; [12]) was 36* %, the “Protective effect to death Survival Total” value (endothelin [1]; [12]) was 5/14 and the LD50 (Acute toxicities; iv, male Wistar rats) was > 50 mg/kg.
For CCC[n+]1cc(Br)cc(C(=O)N(CCC(=O)NCCOC(=O)N2CCc3ccccc3C2)c2ccccc2)c1 [[VIIIa]], the inhibition at 0.4 µM [4, 8] was 100%, the inhibition at 0.04 µM [4, 8] was 72.1% and the inhibition at 4 µM [4, 9] was 78.2%. It also gave an inhibition at 0.4 µM [4, 9] of 64.2%.
